Measured values published in the kinase profiling compilation of Christmann-Franck et al. (2016).

Columns and labels:
Experiment in all cases: KINOMEscan competition binding
Details in all cases: compound 1.0 µM
[1] = biological target: AKT2 (human) (UniProt P31751)
[2] = biological target: AURKB (human) (UniProt Q96GD4)
[3] = biological target: BMPR1A (human) (UniProt P36894)
[4] = biological target: BMX (human) (UniProt P51813)
[5] = biological target: CAMK1D (human) (UniProt Q8IU85)
[6] = biological target: CLK3 (human) (UniProt P49761)
[7] = biological target: DAPK1 (human) (UniProt P53355)
[8] = biological target: DSTYK (human) (UniProt Q6XUX3)
[9] = test system: EGFR (human), P00533 [P753S; 747-752 del]
[10] = biological target: EPHA8 (human) (UniProt P29322)
[11] = biological target: EPHB2 (human) (UniProt P29323)
[12] = biological target: FER (human) (UniProt P16591)
[13] = test system: FLT3 (human), P36888 [D835H]
[14] = biological target: HIPK3 (human) (UniProt Q9H422)
[15] = biological target: IRAK1 (human) (UniProt P51617)
[16] = biological target: IRAK4 (human) (UniProt Q9NWZ3)
[17] = biological target: ITK (human) (UniProt Q08881)
[18] = biological target: LIMK1 (human) (UniProt P53667)
[19] = biological target: LIMK2 (human) (UniProt P53671)
[20] = biological target: MAP2K1 (human) (UniProt Q02750)
[21] = biological target: MAP3K12 (human) (UniProt Q12852)
[22] = biological target: MAP4K1 (human) (UniProt Q92918)
[23] = biological target: MAPKAPK5 (human) (UniProt Q8IW41)
[24] = biological target: MARK2 (human) (UniProt Q7KZI7)
[25] = biological target: MST1R (human) (UniProt Q04912)
[26] = biological target: MYLK (human) (UniProt Q15746)
[27] = biological target: MYO3B (human) (UniProt Q8WXR4)
[28] = biological target: NEK9 (human) (UniProt Q8TD19)
[29] = biological target: PAK7 (human) (UniProt Q9P286)
[30] = test system: PIK3CA (human), P42336 [E542K]
[31] = test system: PIK3CA (human), P42336 [I800L]
[32] = test system: PIK3CA (human), P42336 [M1043I]
[33] = biological target: PKN3 (M.tuberculosis) (UniProt Q6P5Z2)
[34] = biological target: PLK2 (human) (UniProt Q9NYY3)
[35] = biological target: PLK3 (human) (UniProt Q9H4B4)
[36] = biological target: PTK2B (human) (UniProt Q14289)
[37] = biological target: RPS6KA5 KD2 (human) (UniProt O75582)
[38] = biological target: RPS6KA6 KD2 (human) (UniProt Q9UK32)
[39] = biological target: SIK2 (human) (UniProt Q9H0K1)
[40] = biological target: STK25 (human) (UniProt O00506)
[41] = biological target: TIE1 (human) (UniProt P35590)

EPHB2 (human), sequence (P29323 whole entry, looked up): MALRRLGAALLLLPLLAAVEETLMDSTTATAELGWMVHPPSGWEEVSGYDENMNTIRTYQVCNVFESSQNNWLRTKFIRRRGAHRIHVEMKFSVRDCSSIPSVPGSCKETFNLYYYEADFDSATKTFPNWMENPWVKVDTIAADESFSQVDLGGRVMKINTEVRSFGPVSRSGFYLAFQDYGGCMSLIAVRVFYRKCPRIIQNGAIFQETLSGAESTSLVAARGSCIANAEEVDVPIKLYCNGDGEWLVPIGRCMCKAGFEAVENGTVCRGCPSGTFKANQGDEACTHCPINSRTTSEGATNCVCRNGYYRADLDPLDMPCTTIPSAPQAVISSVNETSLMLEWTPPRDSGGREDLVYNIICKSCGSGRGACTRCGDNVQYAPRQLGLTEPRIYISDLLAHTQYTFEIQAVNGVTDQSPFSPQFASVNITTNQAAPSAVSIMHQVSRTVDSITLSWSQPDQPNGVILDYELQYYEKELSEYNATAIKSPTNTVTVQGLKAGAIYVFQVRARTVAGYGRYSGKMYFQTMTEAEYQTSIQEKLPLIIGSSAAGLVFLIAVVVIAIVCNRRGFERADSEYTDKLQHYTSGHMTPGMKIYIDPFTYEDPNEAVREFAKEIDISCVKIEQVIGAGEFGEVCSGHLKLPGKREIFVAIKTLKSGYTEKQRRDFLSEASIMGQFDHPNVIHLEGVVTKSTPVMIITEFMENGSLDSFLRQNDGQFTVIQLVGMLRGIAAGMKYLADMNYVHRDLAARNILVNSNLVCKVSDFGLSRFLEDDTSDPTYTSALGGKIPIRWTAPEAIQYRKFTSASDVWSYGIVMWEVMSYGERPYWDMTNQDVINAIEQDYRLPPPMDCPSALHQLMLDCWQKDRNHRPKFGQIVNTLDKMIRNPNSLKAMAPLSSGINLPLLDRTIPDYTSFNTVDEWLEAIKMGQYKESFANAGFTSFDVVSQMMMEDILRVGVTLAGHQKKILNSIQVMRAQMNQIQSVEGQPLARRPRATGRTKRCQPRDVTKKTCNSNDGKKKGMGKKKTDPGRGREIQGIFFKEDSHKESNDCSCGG
ITK (human), sequence (Q08881 whole entry, looked up): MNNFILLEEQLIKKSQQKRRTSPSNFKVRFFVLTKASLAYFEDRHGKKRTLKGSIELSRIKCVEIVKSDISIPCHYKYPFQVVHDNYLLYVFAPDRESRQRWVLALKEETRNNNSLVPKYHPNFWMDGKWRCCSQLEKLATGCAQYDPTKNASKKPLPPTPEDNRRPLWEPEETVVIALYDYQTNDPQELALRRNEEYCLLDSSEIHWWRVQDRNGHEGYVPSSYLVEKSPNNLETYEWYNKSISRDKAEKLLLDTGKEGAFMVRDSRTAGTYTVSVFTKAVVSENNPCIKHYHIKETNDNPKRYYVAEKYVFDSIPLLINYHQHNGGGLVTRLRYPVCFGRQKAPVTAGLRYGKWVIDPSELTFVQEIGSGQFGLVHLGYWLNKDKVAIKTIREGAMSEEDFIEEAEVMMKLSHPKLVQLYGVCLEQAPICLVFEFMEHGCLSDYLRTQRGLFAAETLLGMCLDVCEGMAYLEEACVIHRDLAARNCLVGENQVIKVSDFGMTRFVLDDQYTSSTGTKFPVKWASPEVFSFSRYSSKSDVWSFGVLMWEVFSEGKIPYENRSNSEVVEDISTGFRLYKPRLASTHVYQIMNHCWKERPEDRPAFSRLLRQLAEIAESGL
MARK2 (human), sequence (Q7KZI7 whole entry, looked up): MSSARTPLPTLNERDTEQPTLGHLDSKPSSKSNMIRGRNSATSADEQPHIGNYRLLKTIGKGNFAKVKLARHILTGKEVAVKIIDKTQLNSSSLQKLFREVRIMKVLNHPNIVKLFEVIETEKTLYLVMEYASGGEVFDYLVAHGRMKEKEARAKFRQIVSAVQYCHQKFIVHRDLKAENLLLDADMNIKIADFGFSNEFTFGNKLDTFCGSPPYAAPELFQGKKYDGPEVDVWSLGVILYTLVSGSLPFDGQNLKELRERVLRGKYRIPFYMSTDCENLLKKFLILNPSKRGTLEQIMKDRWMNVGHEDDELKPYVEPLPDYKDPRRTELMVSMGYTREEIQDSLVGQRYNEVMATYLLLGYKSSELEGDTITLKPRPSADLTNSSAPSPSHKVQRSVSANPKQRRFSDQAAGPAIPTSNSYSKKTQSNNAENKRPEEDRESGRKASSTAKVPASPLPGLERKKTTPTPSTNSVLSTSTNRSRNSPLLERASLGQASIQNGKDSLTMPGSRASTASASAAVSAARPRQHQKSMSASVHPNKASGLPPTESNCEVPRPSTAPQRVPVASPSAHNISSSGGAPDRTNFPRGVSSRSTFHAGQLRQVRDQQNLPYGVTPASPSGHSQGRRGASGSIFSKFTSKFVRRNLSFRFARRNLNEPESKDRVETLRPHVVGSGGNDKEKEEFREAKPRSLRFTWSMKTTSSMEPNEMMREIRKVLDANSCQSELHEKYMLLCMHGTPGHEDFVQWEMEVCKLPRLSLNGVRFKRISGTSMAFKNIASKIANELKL
PIK3CA (human), P42336 [M1043I], sequence (P42336 whole entry M1043I, looked up): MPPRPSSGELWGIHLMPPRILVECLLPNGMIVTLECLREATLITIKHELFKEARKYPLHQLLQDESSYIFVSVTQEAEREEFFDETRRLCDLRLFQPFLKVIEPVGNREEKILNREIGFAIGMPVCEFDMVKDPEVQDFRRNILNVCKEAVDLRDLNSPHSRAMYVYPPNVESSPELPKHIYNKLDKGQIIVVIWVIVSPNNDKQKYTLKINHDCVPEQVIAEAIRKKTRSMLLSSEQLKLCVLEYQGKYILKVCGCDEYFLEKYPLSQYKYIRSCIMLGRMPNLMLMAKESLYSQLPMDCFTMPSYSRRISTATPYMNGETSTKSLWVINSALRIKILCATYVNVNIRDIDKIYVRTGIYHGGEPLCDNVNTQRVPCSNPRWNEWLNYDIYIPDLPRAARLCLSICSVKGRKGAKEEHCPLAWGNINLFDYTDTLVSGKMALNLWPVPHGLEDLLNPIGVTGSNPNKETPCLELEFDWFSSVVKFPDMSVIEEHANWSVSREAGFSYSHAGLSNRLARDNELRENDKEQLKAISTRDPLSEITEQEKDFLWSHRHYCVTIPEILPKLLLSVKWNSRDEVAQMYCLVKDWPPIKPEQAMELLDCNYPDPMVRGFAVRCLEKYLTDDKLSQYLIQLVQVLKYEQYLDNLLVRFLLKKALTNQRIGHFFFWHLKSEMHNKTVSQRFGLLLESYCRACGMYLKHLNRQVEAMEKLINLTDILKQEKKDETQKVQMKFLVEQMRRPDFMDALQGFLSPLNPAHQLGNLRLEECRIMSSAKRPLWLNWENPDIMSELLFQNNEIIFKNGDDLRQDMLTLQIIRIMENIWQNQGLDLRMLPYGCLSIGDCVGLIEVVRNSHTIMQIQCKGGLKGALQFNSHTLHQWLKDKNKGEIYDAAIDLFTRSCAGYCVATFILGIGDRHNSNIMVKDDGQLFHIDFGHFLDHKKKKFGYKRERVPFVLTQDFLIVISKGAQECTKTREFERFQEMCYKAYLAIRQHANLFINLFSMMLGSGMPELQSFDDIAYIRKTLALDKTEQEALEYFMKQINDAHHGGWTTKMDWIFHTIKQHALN
MAP2K1 (human), sequence (Q02750 whole entry, looked up): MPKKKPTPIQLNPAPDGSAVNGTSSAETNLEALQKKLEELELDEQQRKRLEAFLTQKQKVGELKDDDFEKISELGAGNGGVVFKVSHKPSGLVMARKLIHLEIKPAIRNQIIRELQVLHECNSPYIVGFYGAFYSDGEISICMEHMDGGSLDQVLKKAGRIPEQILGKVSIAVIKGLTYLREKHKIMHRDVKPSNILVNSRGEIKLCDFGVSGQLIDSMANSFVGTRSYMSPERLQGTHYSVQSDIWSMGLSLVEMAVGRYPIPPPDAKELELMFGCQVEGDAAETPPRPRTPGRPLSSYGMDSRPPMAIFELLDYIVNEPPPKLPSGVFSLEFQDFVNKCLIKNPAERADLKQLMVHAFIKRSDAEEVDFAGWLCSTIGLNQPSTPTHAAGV
PLK2 (human), sequence (Q9NYY3 whole entry, looked up): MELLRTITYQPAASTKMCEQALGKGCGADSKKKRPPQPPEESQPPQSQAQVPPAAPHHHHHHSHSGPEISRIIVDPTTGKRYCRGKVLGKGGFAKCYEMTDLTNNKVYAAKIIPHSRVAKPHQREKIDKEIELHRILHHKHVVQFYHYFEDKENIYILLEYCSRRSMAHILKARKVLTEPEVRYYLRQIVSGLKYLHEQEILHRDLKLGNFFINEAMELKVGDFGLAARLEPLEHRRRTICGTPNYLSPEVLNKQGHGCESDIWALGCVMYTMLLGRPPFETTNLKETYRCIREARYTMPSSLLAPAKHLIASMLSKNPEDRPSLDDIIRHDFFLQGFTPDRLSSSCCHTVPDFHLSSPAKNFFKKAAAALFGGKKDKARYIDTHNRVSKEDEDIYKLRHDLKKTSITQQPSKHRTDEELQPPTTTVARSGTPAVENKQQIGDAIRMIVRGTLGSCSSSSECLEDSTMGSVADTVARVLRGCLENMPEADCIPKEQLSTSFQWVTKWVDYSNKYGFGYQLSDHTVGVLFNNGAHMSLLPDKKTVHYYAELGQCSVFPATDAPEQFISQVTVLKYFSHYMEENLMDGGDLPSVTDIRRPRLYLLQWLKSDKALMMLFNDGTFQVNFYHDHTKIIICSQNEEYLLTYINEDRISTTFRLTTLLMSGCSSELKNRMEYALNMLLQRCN
PIK3CA (human), P42336 [E542K], sequence (P42336 whole entry E542K, looked up): as the sequence (P42336 whole entry M1043I, looked up) above, with E542K, I1043M counted along it
CAMK1D (human), sequence (Q8IU85 whole entry, looked up): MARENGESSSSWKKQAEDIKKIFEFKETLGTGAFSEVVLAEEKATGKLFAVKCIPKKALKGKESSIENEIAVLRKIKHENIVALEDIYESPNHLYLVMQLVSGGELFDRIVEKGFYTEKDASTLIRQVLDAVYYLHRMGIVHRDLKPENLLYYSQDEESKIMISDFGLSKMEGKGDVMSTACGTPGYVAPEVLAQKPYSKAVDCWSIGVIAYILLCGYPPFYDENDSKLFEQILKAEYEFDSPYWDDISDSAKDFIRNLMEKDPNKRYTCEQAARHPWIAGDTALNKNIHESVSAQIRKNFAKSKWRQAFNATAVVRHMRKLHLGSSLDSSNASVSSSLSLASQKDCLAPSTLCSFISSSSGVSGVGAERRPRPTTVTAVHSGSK

COCCNCCCn1c(C(=O)CF)c(-c2ccc(C)cc2)c2c(N)ncnc21 showed a kinase still bound, per cent of control [1] of 95%, a kinase still bound, per cent of control [2] of 62% and a kinase still bound, per cent of control [3] of 100%. It also gave a kinase still bound, per cent of control [4] of 98%, a kinase still bound, per cent of control [5] of 100% and a kinase still bound, per cent of control [6] of 79%. For the same molecule, the kinase still bound, per cent of control [7] was 100%, the kinase still bound, per cent of control [8] was 100% and the kinase still bound, per cent of control [9] was 100%. For the same molecule, the kinase still bound, per cent of control [10] was 75%, the kinase still bound, per cent of control [11] was 92% and the kinase still bound, per cent of control [12] was 84%. The kinase still bound, per cent of control [13] was 100%, the kinase still bound, per cent of control [14] was 100% and the kinase still bound, per cent of control [15] was 93%. The kinase still bound, per cent of control [16] was 100%, the kinase still bound, per cent of control [17] was 100% and the kinase still bound, per cent of control [18] was 100%. It also gave a kinase still bound, per cent of control [19] of 100%, a kinase still bound, per cent of control [20] of 100% and a kinase still bound, per cent of control [21] of 94%. It also gave a kinase still bound, per cent of control [22] of 86%, a kinase still bound, per cent of control [23] of 100% and a kinase still bound, per cent of control [24] of 81%. For the same molecule, the kinase still bound, per cent of control [25] was 100%, the kinase still bound, per cent of control [26] was 100% and the kinase still bound, per cent of control [27] was 79%. The kinase still bound, per cent of control [28] was 99%, the kinase still bound, per cent of control [29] was 82% and the kinase still bound, per cent of control [30] was 100%. For the same molecule, the kinase still bound, per cent of control [31] was 100%, the kinase still bound, per cent of control [32] was 100% and the kinase still bound, per cent of control [33] was 100%. For the same molecule, the kinase still bound, per cent of control [34] was 96%, the kinase still bound, per cent of control [35] was 91% and the kinase still bound, per cent of control [36] was 100%. The kinase still bound, per cent of control [37] was 98%, the kinase still bound, per cent of control [38] was 2.4% and the kinase still bound, per cent of control [39] was 82%. It also gave a kinase still bound, per cent of control [40] of 100% and a kinase still bound, per cent of control [41] of 100%.
